Legend:
[1] = system: collagen-induced arthritis; settings: 0.5 mg/kg a day; cited from earlier work
[2] = Repeat dose study in healthy men, plasma pharmacokinetics; type: in vivo, human; settings: for Cmax: n=5
Experimental: (§1) In the single dose study, 15 healthy men (3 groups of 5) received a single oral dose of IB-MECA (1, 5 or 10 mg) or placebo. In each group, 1 subject received placebo. In the repeated dose study, 28 healthy men (4 groups of 7) received repeated oral doses of IB-MECA (2, 3, 4 or 5 mg) or placebo every 12 h for 7 days. In each group, 2 subjects received placebo.
(§2) In the single dose study, a solution with IB-MECA powder in 30% Cremophor RH40 (BASF) was used. In the repeated dose study, an aqueous 0.5% methylcellulose suspension (Methocel A4M Premium, The Dow Chemical Company) was used. In both studies, the study medication was taken orally as a drink, followed by 50 ml of tap water.
(§3) The following procedures were done: • Safety assesment: laboratory assessments (routine biochemistry and urinalysis), physical examination, 12-lead ECG, ambulatory ECG, pulmonary function testing (FEV1), vital signs (semi-recumbent in the single dose study; semi-recumbent and standing in the repeat dose study). Adverse events were recorded throughout both studies. • Determination of IB-MECA blood level: in the single dose study blood samples for assay of IB-MECA were taken immediately before and at 0.25, 0.5, 1, 2, 4, 8, 12, 24, and 48 h after dosing; in the repeat dose study—blood samples were taken immediately before and at 0.25, 0.5, 1, 2, 4, 8, and 12 h after dosing on Day 1, before dosing on Days 2–6, and before and at 0.25, 0.5, 1, 2, 4, 8, 12, and 24 h after dosing on Day 7.
(§4) Plasma samples were assayed for IB-MECA using LC/MS/MS. The lower limit of quantification (LLOQ) was 0.1 ng/mL. Intra-assay coefficients of variation (CV) were <5.0% and inter-assay CVs were <9.4%.
(§5) Maximum concentration (Cmax) and time to maximum concentration (tmax) were observed values. Other pharmacokinetic parameters (half-life, t^1/2; AUC; and clearance, CL/F) were calculated by non-compartmental methods using WinNonlin® software (version 3.0, Pharsight, Mountain View, Calif., US). Accumulation indices of Cmax and AUC were calculated as ratio of values at steady state (Day 7) to the values on Day 1.

[3] = Human studies, plasma half life (data not shown); type: in vivo
[4] = Single dose study in healthy men, plasma pharmacokinetics; type: in vivo, human
Experimental: as §1, §2, §3, §4, §5

macrophages = settings: dose dependent; cited from earlier work
[5] = 2 mg every 12 h, Day 1, mean (SD)
[6] = 2 mg every 12 h, Day 7, mean (SD)
[7] = 3 mg every 12 h, Day 1, mean (SD)
[8] = 3 mg every 12 h, Day 7, mean (SD)
[9] = 4 mg every 12 h, Day 1, mean (SD)
[10] = 4 mg every 12 h, Day 7, mean (SD)
[11] = 5 mg every 12 h, Day 1, mean (SD)
[12] = 5 mg every 12 h, Day 7, mean (SD)
[13] = repeated doses, independent of dose
[14] = single doses 1-10 mg, independent of dose
[15] = single oral dose 1 mg, mean (SD)
[16] = single oral dose 5 mg, mean (SD)
[17] = single oral dose 10 mg, mean (SD)

## CNC(=O)[C@H]1O[C@@H](n2cnc3c(NCc4cccc(I)c4)ncnc32)[C@H](O)[C@@H]1O [IB-MECA, N6-(3-iodobenzyl)-adenosine-5′-N-methyl-uronamide]
[1]
  severity of joint inflammation: reduced the severity of joint inflammation
[2]; [5]
  AUC (AUC(inf) on Day 1): 207.4 (52.0) ng · h/mL
  AUC(0–12): 155.2 (39.1) ng · h/mL
  CL/F: 10.1 (2.3) L/h
  t1/2: 5.52 (0.2) h
  Cmax: 22.0 (3.3) ng/mL
[2]; 2 mg every 12 h, Day 1, median (range)
  tmax: 2 (1–4) h
[2]; [6]
  AUC (AUC(0–24) on Day 7): 346.3 (64.0) ng · h/mL
  AUC(0–12): 242.4 (41.4) ng · h/mL
  CL/F: 4.9 (0.7) L/h
  t1/2: 9.83 (1.2) h
  Cmax: 30.9 (3.1) ng/mL
[2]; 2 mg every 12 h, Day 7, median (range)
  tmax: 2 (1–2) h
[2]; [7]
  AUC (AUC(inf) on Day 1): 423.5 (27.5) ng · h/mL
  AUC(0–12): 304.5 (19.5) ng · h/mL
  CL/F: 7.1 (0.5) L/h
  t1/2: 6.29 (1.0) h
  Cmax: 49.3 (9.7) ng/mL
[2]; 3 mg every 12 h, Day 1, median (range)
  tmax: 2 (1–2) h
[2]; [8]
  AUC (AUC(0–24) on Day 7): 512.1 (74.1) ng · h/mL
  AUC(0–12): 341.6 (38.1) ng · h/mL
  CL/F: 5.0 (0.6) L/h
  t1/2: 9.25 (0.8) h
  Cmax: 49.0 (7.9) ng/mL
[2]; 3 mg every 12 h, Day 7, median (range)
  tmax: 1 (1–2) h
[2]; [9]
  AUC (AUC(inf) on Day 1): 400.2 (85.7) ng · h/mL
  AUC(0–12): 297.0 (57.2) ng · h/mL
  CL/F: 10.4 (2.1) L/h
  t1/2: 5.77 (0.6) h
  Cmax: 46.2 (11.4) ng/mL
[2]; 4 mg every 12 h, Day 1, median (range)
  tmax: 2 (1–2) h
[2]; [10]
  AUC (AUC(0–24) on Day 7): 640.3 (73.7) ng · h/mL
  AUC(0–12): 458.3 (54.8) ng · h/mL
  CL/F: 5.4 (0.7) L/h
  t1/2: 8.93 (0.8) h
  Cmax: 58.1 (10.4) ng/mL
[2]; 4 mg every 12 h, Day 7, median (range)
  tmax: 1 (1–2) h
[2]; [11]
  AUC (AUC(inf) on Day 1): 596.1 (196.6) ng · h/mL
  AUC(0–12): 461.6 (157.4) ng · h/mL
  CL/F: 9.3 (3.5) L/h
  t1/2: 4.96 (0.3) h
  Cmax: 63.6 (22.0) ng/mL
[2]; 5 mg every 12 h, Day 1, median (range)
  tmax: 2 (1–2) h
[2]; [12]
  AUC (AUC(0–24) on Day 7): 818.4 (214.0) ng · h/mL
  AUC(0–12): 601.0 (163.6) ng · h/mL
  CL/F: 5.4 (1.5) L/h
  t1/2: 9.39 (0.6) h
  Cmax: 79.5 (24.1) ng/mL
[2]; 5 mg every 12 h, Day 7, median (range)
  tmax: 2 (2–2) h
[2]; ratio Day 7 to Day 1
  accumulation index for AUC: 1.1–1.6
  accumulation index for Cmax: 1–1.4
[2]; repeated doses 2-5 mg every 12 h
  tmax: 1 to 2 h
[2]; repeated doses every 12 h
  steady state reached by: ≤ 3 days
[2]; [13]
  apparent plasma clearance (CL/F): 5 to 10 L/h
  half-life at steady state: 9 to 10 h
[3]
  half life in human plasma: 8 to 10 h
[4]; single daily dose of 5 mg and twice daily dose of 4 mg
  plasma level (Cmax): < 80 ng/mL
[4]; single daily dose of 5 mg and twice daily dose of 4 mg, read-out: plasma level (Cmax)
  Cmax: < 160 nM
[4]; single doses 1-10 mg
  tmax: 1 to 2 h
[4]; [14]
  apparent plasma clearance (CL/F): 4 to 7 L/h
  half-life: about 8.5 h
[4]; [15]
  AUC(0–48): 220.7 ng·h/mL
  AUC(inf): 225.2 (21.7) ng · h/mL
  CL/F: 4.5 (0.4) L/h
  t1/2: 8.7 (0.7) h
[4]; single oral dose 1 mg, mean (SD), n=4
  Cmax: 21.2 ng/mL
[4]; single oral dose 1 mg, median (range)
  tmax: 1 (1–2) h
[4]; [16]
  AUC(0–48): 872.3 ng·h/mL
  AUC(inf): 904.0 (221.9) ng · h/mL
  CL/F: 5.8 (1.4) L/h
  t1/2: 8.3 (0.2) h
[4]; single oral dose 5 mg, mean (SD), n=4
  Cmax: 81.6 ng/mL
[4]; single oral dose 5 mg, median (range)
  tmax: 1 (1–2) h
[4]; [17]
  AUC(0–48): 1780.0 ng·h/mL
  AUC(inf): 1813.0 (226.5) ng · h/mL
  CL/F: 5.6 (0.7) L/h
  t1/2: 8.6 (0.4) h
[4]; single oral dose 10 mg, mean (SD), n=4
  Cmax: 178.0 ng/mL
[4]; single oral dose 10 mg, median (range)
  tmax: 1 (1–2) h
macrophages
  production of MIP-1α in macrophages: suppresses the production of MIP-1α
  production of the cytokines IL-1, IL-2, IL-6 as well as NO: inhibit, also in a dose dependent manner

Source: patent US7141553B2, “A3AR agonists for the treatment of inflammatory arthritis” (Can-Fite Biopharma Ltd. Israel, priority 2002, dated 2006)
